Measurements: ChEMBL document CHEMBL5518210 (J Med Chem, 2024)

How the values were obtained:
in vivo = details: C57BL/6, mouse, po, 10 mg/kg
Description: Oral bioavailability in C57BL/6 mouse at 10 mg/kg

[1] = biological target: Kelch-like ECH-associated protein 1 (Homo sapiens, UniProt Q14145); experiment: Binding affinity to biotinylated Keap1 Kelch domain (unknown origin) by SPR method
Keap1/Nrf2 = Keap1/Nrf2 (Homo sapiens, UniProt Q14145); experiment: Inhibition of His-tagged human Keap1 Kelch domain /FITC-labelled-9mer Nrf2 (unknown origin) protein-protein interaction incubated for 1 hr by fluorescence polarization assay
Sequence of Keap1/Nrf2 (Q16236 whole entry, the tested form may be a part): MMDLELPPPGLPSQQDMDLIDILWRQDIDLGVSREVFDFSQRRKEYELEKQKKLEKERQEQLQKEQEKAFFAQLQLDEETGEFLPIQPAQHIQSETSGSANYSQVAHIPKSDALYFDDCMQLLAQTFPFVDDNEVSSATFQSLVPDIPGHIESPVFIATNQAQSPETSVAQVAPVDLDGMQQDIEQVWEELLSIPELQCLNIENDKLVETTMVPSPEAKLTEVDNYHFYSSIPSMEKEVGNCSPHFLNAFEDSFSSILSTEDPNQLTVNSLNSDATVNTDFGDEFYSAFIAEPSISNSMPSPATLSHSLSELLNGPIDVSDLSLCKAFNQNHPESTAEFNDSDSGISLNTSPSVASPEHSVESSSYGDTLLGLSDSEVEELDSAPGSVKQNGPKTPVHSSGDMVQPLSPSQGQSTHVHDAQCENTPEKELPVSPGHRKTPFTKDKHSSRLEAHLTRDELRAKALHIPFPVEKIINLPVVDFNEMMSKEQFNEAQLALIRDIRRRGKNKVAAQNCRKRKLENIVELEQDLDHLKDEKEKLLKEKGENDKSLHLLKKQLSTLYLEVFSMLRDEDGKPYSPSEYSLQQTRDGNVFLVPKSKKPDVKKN
Sequence of Keap1/Nrf2 (Q14145 whole entry, the tested form may be a part): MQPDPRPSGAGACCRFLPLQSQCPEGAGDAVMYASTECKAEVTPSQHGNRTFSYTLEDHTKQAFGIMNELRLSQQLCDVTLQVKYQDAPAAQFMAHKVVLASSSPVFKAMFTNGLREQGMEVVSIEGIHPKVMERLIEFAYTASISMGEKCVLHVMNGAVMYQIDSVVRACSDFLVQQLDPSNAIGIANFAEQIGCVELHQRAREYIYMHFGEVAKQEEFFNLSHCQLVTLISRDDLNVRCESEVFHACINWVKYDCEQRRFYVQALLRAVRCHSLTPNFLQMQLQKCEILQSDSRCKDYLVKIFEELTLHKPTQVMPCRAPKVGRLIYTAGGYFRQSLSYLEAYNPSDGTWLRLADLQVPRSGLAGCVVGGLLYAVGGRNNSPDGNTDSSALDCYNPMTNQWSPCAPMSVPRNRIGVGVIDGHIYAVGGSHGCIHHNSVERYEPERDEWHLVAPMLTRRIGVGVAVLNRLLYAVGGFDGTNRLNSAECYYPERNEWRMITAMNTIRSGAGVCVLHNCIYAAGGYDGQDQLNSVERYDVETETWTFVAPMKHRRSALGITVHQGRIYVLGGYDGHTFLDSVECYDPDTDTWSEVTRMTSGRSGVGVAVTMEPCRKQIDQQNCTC

[2] = Apparent permeability in human Caco-2 cells incubated for 2 hrs by LC/MS analysis
[3] = Metabolic stability in human liver microsomes assessed as compound remaining at 5 uM measured upto 60 mins
Cytochrome P450 2D6 = Cytochrome P450 2D6 (Homo sapiens, UniProt P10635); experiment: Inhibition of CYP2D6 in human liver microsomes; format: ADME, Microsome
Sequence of Cytochrome P450 2D6 (P10635 whole entry): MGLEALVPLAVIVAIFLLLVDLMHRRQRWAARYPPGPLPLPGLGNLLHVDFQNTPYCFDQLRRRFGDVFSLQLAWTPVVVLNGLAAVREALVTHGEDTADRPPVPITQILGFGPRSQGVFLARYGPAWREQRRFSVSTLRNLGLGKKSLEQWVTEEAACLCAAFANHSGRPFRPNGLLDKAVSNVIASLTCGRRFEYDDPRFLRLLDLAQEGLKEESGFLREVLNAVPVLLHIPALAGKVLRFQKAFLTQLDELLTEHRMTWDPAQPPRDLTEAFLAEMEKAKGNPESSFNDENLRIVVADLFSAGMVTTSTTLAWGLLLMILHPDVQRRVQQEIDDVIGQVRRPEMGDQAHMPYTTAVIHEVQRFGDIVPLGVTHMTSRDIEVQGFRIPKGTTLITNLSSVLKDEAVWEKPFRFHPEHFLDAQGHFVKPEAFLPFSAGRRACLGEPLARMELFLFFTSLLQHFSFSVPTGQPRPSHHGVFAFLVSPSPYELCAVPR

Cytochrome P450 2C8 = biological target: T1, Cytochrome P450 2C8 (Homo sapiens, UniProt P10632); experiment: Inhibition of CYP2C8 in human liver microsomes; format: ADME, Microsome
T1 sequence (P10632 whole entry): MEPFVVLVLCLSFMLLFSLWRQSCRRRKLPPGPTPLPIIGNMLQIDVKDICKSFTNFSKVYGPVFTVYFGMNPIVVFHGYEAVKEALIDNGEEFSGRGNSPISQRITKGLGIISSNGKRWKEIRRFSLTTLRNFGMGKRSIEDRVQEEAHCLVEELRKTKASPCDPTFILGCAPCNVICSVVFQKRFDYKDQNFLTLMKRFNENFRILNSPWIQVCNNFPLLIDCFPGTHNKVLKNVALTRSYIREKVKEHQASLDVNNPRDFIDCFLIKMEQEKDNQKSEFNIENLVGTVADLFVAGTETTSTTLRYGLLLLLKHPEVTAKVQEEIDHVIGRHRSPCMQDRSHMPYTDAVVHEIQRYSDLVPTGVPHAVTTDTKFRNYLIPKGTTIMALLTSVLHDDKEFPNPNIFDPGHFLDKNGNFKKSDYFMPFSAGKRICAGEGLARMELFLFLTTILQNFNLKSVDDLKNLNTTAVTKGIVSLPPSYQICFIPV

Cytochrome P450 1A2 = biological target: T2, Cytochrome P450 1A2 (Homo sapiens, UniProt P05177); experiment: Inhibition of CYP1A2 in human liver microsomes; format: ADME, Microsome
T2 sequence (P05177 whole entry): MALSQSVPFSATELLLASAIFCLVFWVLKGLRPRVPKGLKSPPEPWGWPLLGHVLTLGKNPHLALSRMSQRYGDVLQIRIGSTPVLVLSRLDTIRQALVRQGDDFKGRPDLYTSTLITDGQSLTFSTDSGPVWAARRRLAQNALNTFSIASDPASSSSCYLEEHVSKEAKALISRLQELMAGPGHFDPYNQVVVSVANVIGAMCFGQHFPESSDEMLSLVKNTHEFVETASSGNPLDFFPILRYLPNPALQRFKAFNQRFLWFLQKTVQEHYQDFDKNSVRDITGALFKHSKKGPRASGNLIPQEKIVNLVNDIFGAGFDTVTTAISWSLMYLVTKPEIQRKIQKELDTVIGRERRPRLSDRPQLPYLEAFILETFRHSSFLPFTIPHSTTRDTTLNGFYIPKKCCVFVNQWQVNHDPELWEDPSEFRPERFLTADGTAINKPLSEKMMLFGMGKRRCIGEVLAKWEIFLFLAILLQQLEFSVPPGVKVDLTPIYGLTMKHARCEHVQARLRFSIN

Cytochrome P450 3A4 = Cytochrome P450 3A4 (Homo sapiens, UniProt P08684); experiment: Inhibition of CYP3A4 in human liver microsomes; format: ADME, Microsome
Sequence of Cytochrome P450 3A4 (P08684 whole entry): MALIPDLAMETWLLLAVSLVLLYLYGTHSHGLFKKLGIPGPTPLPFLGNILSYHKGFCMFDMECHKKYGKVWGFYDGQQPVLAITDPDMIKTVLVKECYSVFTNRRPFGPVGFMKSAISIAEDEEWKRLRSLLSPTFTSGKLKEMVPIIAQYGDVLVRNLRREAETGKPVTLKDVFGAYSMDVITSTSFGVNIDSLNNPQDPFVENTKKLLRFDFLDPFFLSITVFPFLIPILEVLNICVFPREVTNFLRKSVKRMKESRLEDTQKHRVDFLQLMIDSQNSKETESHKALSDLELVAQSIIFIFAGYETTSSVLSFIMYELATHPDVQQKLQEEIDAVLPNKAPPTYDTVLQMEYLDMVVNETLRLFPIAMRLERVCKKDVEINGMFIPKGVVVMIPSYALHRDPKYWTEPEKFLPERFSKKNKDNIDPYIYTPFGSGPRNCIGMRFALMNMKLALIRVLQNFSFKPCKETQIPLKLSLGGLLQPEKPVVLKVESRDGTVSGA

Cytochrome P450 2C9 = Cytochrome P450 2C9 (Homo sapiens, UniProt P11712); experiment: Inhibition of CYP2C9 in human liver microsomes; format: ADME, Microsome
Sequence of Cytochrome P450 2C9 (P11712 whole entry): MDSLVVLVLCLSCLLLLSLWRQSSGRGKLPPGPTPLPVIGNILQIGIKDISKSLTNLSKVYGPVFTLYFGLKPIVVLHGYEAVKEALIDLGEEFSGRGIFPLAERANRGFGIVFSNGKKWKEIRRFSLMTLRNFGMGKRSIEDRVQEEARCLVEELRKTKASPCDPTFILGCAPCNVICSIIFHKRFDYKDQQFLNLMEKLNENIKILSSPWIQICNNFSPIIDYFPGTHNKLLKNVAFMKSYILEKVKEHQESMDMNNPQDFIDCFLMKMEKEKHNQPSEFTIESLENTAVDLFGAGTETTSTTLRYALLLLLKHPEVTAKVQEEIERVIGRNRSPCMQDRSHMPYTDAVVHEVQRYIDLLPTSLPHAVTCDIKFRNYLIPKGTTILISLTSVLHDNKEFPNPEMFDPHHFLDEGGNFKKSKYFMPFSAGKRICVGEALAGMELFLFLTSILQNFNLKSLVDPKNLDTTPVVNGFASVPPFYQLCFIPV

[4] = biological target: Voltage-gated inwardly rectifying potassium channel KCNH2 (Homo sapiens, UniProt Q12809); experiment: Inhibition of human ERG by patch clamp assay; format: toxicity
Sequence of Voltage-gated inwardly rectifying potassium channel KCNH2 (Q12809 whole entry): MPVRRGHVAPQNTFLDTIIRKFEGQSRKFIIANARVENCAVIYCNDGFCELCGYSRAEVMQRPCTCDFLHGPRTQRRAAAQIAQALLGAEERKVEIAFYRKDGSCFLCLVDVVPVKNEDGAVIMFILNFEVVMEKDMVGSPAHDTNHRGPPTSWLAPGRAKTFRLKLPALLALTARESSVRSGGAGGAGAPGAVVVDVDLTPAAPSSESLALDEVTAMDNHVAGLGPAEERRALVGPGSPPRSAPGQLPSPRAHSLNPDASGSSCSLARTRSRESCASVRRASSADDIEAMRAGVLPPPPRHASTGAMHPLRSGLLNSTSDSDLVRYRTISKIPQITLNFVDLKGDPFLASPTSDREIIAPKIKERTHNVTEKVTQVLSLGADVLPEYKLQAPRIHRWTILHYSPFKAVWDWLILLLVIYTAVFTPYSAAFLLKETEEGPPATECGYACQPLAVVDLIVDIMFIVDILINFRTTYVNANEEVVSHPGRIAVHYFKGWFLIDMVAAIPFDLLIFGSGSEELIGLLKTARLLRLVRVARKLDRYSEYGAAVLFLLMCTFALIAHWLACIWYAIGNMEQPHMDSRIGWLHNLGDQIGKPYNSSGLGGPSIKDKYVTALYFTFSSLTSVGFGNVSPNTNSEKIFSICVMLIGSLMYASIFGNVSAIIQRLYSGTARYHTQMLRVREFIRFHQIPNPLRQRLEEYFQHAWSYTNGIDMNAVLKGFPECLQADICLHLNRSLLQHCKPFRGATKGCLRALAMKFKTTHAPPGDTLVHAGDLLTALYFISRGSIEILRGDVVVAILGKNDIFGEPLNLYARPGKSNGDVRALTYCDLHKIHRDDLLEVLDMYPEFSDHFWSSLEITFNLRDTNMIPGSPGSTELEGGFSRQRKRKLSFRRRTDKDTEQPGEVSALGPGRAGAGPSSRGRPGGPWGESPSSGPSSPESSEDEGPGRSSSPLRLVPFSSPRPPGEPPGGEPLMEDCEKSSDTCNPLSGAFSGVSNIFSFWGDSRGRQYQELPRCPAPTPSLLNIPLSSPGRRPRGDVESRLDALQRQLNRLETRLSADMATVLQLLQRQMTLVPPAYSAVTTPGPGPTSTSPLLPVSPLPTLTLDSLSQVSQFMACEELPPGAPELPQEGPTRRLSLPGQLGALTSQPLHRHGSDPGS

Cytochrome P450 2C19 = Cytochrome P450 2C19 (Homo sapiens, UniProt P33261); experiment: Inhibition of CYP2C19 in human liver microsomes; format: ADME, Microsome
Sequence of Cytochrome P450 2C19 (P33261 whole entry): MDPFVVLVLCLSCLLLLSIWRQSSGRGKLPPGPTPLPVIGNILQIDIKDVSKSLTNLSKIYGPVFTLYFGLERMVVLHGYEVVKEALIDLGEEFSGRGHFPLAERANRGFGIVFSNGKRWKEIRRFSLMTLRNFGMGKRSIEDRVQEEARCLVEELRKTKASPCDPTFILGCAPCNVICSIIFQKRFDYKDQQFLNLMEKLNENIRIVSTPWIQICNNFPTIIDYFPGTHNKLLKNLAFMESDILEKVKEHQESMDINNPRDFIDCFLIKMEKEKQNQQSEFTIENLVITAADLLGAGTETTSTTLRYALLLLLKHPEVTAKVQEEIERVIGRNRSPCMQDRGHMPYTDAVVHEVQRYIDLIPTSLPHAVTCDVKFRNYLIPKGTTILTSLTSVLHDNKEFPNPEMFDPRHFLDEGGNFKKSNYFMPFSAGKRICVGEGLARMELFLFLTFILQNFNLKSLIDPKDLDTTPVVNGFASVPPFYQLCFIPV

Sequence of Kelch-like ECH-associated protein 1 (Q14145 whole entry, the tested form may be a part): as the sequence (Q14145 whole entry, the tested form may be a part) above

Row | SMILES | IC50 (Keap1/Nrf2) | Papp at 2 h [2] | remaining at 1 h, 5 µM [3] | other results
1 | COc1ccc(S(=O)(=O)Nc2ccc(N(CC(=O)N3CCSC3=O)S(=O)(=O)c3ccc(OC)cc3)c3ccccc23)cc1 |  |  |  | bioavailability (in vivo): 68%
2 | Cc1ccc([C@@H](NC(=O)[C@@H](F)c2ccc3c(c2)CCCC3)[C@@H](C)C(=O)O)cc1 | 0.26 µM | 33 ×10⁻⁶ cm/s |  | Kd [1]: 0.13 µM
3 | Cc1ccc([C@@H](NC(=O)Cc2ccc(Cn3ccccc3=O)cc2)[C@@H](C)C(=O)O)cc1 | 0.92 µM | 0.16 ×10⁻⁶ cm/s | 98% | 
4 | Cc1ccc(CC(=O)N[C@H](c2ccc(C)c(OCC3CCCCC3)c2)[C@@H](C)C(=O)O)cc1 | 10 µM | 17 ×10⁻⁶ cm/s |  | 
5 | Cc1ccc([C@@H](NC(=O)[C@@H](F)c2ccc(Cl)cc2)[C@@H](C)C(=O)O)cc1OCC(C)(C)C#N |  |  |  | IC50 (Cytochrome P450 2D6): > 10 µM; IC50 (Cytochrome P450 2C8): > 10 µM; IC50 (Cytochrome P450 1A2): > 10 µM; IC50 (Cytochrome P450 3A4): > 10 µM; IC50 (Cytochrome P450 2C9): 6.2 µM; IC50 [4]: > 30 µM; IC50 (Cytochrome P450 2C19): > 10 µM
6 | CCCOc1cc([C@@H](NC(=O)Cc2ccc(C)cc2)[C@@H](C)C(=O)O)ccc1C | 9.6 µM | 18 ×10⁻⁶ cm/s | 57% | 
7 | Cc1ccc(CC(=O)N[C@H](c2ccc(C)c(OCC(C)C)c2)[C@@H](C)C(=O)O)cc1 | 3.6 µM | 26 ×10⁻⁶ cm/s | 73% | 
8 | Cc1ccc(CC(=O)N[C@H](c2ccc(C)cc2)[C@@H](C)C(=O)O)cc1 | 20 µM | 8.8 ×10⁻⁶ cm/s | 97% | 
9 | Cc1ccc([C@@H](NC(=O)Cc2ccc(Cc3ncccc3C)cc2)[C@@H](C)C(=O)O)cc1.Cl | 0.14 µM | 11 ×10⁻⁶ cm/s | 93% | 
10 | Cc1ccc([C@@H](NC(=O)Cc2ccc(CC3CCCCC3)cc2)[C@@H](C)C(=O)O)cc1 | 8.4 µM | 42 ×10⁻⁶ cm/s | 16% | 
11 | Cc1ccc(CC(=O)N[C@H](c2ccc(C)c(OCC(C)(C)C#N)c2)[C@@H](C)C(=O)O)cc1 | 0.078 µM | 1.4 ×10⁻⁶ cm/s | 43% | 
12 | Cc1ccc(CC(=O)N[C@H](c2ccc(C)c(OCC(C)(C)F)c2)[C@@H](C)C(=O)O)cc1 | 0.27 µM | 11 ×10⁻⁶ cm/s | 68% | 
13 | Cc1ccc([C@@H](NC(=O)Cc2ccc(CC3CC3)cc2)[C@@H](C)C(=O)O)cc1 | 15 µM | 15 ×10⁻⁶ cm/s | 93% | 
14 | Cc1ccc(CC(=O)N[C@H](c2ccc(C)c(OCC(C)(C)O)c2)[C@@H](C)C(=O)O)cc1 | 4.2 µM | 0.31 ×10⁻⁶ cm/s | 100% | 
15 | Cc1ccc([C@@H](NC(=O)Cc2ccc(Cc3cccc(C)n3)cc2)[C@@H](C)C(=O)O)cc1.Cl | 0.17 µM | 2 ×10⁻⁶ cm/s | 94% | 
16 | Cc1ccc(CC(=O)N[C@H](c2ccc(C)c(OCC3CCCC3)c2)[C@@H](C)C(=O)O)cc1 | 5 µM | 21 ×10⁻⁶ cm/s |  | 
17 | Cc1ccc(CC(=O)N[C@H](c2ccc(C)c(OCC3(C#N)CC3)c2)[C@@H](C)C(=O)O)cc1 | 0.05 µM | 0.62 ×10⁻⁶ cm/s | 83% | 
18 | Cc1ccc([C@@H](NC(=O)Cc2ccc(Cc3cc(C)ccn3)cc2)[C@@H](C)C(=O)O)cc1.Cl | 0.22 µM | 5.4 ×10⁻⁶ cm/s | 92% | 
19 | COc1cccnc1Cc1ccc(CC(=O)N[C@H](c2ccc(C)cc2)[C@@H](C)C(=O)O)cc1.Cl | 0.1 µM | 7.1 ×10⁻⁶ cm/s | 91% | 
20 | Cc1ccc([C@@H](NC(=O)Cc2ccc(Cc3ccccn3)cc2)[C@@H](C)C(=O)O)cc1.Cl | 0.36 µM | 5.7 ×10⁻⁶ cm/s | 94% | 
21 | Cc1ccc(CC(=O)N[C@H](c2ccc(C)c(OCc3ccccc3)c2)[C@@H](C)C(=O)O)cc1 | 13 µM | 21 ×10⁻⁶ cm/s | 74% | 
22 | Cc1ccc([C@@H](NC(=O)Cc2ccc(Cl)cc2)[C@@H](C)C(=O)O)cc1OCC(C)(C)C#N | 0.091 µM | 1.2 ×10⁻⁶ cm/s | 90% | 
23 | Cc1ccc([C@@H](NC(=O)Cc2ccc(Cc3ccc(C)cn3)cc2)[C@@H](C)C(=O)O)cc1.Cl | 0.2 µM | 5.4 ×10⁻⁶ cm/s | 97% | 
24 | CCOc1cccnc1Cc1ccc(CC(=O)N[C@H](c2ccc(C)cc2)[C@@H](C)C(=O)O)cc1 | 0.045 µM | 8.9 ×10⁻⁶ cm/s | 84% | 
25 | CCOc1cccnc1Cc1ccc([C@H](F)C(=O)N[C@H](c2ccc(C)cc2)[C@@H](C)C(=O)O)cc1 |  |  |  | IC50 (Cytochrome P450 2D6): > 10 µM; IC50 (Cytochrome P450 2C8): > 10 µM; IC50 (Cytochrome P450 1A2): > 10 µM; IC50 (Cytochrome P450 3A4): > 10 µM; IC50 (Cytochrome P450 2C9): > 10 µM; IC50 [4]: > 30 µM; IC50 (Cytochrome P450 2C19): > 10 µM
26 | Cc1ccc([C@@H](NC(=O)Cc2ccc(Cn3cccn3)cc2)[C@@H](C)C(=O)O)cc1 | 0.64 µM | 1.1 ×10⁻⁶ cm/s | 95% | 
27 | Cc1ccc([C@H](F)C(=O)N[C@H](c2ccc(C)c(OCC3(C#N)CC3)c2)[C@@H](C)C(=O)O)cc1 |  |  |  | IC50 (Cytochrome P450 2D6): > 10 µM; IC50 (Cytochrome P450 2C8): > 10 µM; IC50 (Cytochrome P450 1A2): > 10 µM; IC50 (Cytochrome P450 3A4): > 10 µM; IC50 (Cytochrome P450 2C9): > 10 µM; IC50 [4]: > 30 µM; IC50 (Cytochrome P450 2C19): > 10 µM
28 | Cc1ccc([C@@H](NC(=O)Cc2ccc(Cc3ccccc3)cc2)[C@@H](C)C(=O)O)cc1 | 2 µM | 24 ×10⁻⁶ cm/s | 79% | 
